Experimental data: ChEMBL document CHEMBL1201862, “PubChem BioAssay data set” (2004)
Active and inactive are the calls of the source.

What was measured:
[1] = biological target: Likely tRNA 2'-phosphotransferase (Candida albicans (strain SC5314 / ATCC MYA-2876) (Yeast), UniProt Q5A7N4); test: TPT1 tRNA phosphotransferase inhibitors, dose response, biochemical, fluorescence polarization (AID 2160)
[2] = biological target: T1, Dual specificity protein phosphatase 3 (Homo sapiens, UniProt P51452); test: VHR1 phosphatase inhibitors, primary screen, biochemical, absorbance, uHTS (AID 1654)
T1 sequence (P51452 whole entry): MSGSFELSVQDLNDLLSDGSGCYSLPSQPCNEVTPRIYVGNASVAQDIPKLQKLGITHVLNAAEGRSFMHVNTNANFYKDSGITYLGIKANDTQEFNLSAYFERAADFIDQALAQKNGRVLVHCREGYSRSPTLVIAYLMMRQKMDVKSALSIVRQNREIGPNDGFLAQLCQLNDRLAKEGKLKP

[3] = biological target: Guanyl-specific ribonuclease T1 (Aspergillus oryzae (strain ATCC 42149 / RIB 40), UniProt P00651); test: RNase T1 inhibitors, dose response, counter-screen for TPT1 inhibitor project, biochemical, fluorescence polarization, 1536-well (AID 2167)
Sequence of Guanyl-specific ribonuclease T1 (P00651 whole entry): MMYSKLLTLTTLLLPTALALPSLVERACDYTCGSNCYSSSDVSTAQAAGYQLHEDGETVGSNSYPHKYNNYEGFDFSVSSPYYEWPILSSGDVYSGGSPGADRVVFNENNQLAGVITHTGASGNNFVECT

[4] = biological target: T2, Dual specificity protein phosphatase 6 (Rattus norvegicus, UniProt Q64346); test: MKP-3 phosphatase inhibitors, primary screen, biochemical, rat enzyme, in vitro (AID 425)
T2 sequence (Q64346 whole entry): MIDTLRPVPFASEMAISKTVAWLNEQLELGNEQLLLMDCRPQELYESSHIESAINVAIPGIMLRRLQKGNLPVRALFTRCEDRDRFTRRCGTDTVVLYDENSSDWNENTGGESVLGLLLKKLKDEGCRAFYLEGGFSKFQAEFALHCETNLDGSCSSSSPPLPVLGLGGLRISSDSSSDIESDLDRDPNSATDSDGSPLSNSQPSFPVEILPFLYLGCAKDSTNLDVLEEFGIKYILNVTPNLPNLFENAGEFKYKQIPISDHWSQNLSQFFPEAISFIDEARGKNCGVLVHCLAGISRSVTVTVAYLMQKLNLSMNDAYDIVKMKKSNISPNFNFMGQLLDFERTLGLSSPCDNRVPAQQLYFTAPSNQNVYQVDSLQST

Genome polyprotein = Genome polyprotein (Hepatitis C virus, UniProt Q2Q167); test: HCV core protein dimerization inhibitors, dose response, biochemical, TR-FRET (AID 2159); parameters: species or system Hepacivirus hominis;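 note: blocks dimerization of HCV core protein measured by TR-FRET between tagged core106 pairs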
Sequence of Genome polyprotein (Q2Q167 whole entry): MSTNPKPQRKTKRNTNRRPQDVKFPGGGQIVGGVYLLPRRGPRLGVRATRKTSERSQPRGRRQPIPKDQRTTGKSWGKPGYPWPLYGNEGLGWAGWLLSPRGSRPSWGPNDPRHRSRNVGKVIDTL

[5] = biological target: T1, Dual specificity protein phosphatase 3; test: VHR1 phosphatase inhibitors, biochemical (AID 1878)
[6] = biological target: Voltage-gated inwardly rectifying potassium channel KCNH2 (Homo sapiens, UniProt Q12809); test: hERG protection from proarrhythmic block, potency, dose response, cell-based, thallium flux (AID 2121); type: ADME
Sequence of Voltage-gated inwardly rectifying potassium channel KCNH2 (Q12809 whole entry): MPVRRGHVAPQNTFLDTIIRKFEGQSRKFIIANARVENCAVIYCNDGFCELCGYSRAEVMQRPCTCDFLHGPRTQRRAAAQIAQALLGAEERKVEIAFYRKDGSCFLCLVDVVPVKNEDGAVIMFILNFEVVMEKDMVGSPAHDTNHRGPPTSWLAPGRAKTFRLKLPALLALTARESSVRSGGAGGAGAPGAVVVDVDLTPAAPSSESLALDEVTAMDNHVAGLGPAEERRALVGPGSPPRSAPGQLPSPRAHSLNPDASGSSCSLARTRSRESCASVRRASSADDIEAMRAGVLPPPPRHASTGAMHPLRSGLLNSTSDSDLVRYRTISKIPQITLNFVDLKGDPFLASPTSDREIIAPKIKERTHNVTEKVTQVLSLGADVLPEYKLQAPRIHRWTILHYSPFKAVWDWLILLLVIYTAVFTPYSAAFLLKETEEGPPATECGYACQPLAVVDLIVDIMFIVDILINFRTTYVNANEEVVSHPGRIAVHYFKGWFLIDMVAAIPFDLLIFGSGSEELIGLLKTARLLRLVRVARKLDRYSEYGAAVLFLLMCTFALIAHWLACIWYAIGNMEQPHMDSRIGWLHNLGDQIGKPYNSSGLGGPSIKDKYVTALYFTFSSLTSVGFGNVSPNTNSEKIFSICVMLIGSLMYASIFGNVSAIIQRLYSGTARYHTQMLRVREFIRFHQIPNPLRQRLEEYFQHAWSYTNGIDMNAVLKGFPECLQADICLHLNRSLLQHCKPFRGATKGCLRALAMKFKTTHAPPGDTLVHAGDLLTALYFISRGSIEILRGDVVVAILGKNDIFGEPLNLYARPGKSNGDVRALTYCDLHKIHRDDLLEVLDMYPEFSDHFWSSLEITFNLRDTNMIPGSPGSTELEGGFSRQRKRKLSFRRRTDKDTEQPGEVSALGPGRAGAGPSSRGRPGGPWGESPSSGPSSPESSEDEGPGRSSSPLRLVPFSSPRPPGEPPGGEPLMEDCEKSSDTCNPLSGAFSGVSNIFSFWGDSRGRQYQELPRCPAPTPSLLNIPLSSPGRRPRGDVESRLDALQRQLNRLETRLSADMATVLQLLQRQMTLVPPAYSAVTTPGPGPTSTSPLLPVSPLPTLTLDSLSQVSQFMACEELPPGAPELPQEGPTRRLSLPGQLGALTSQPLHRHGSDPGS

[7] = biological target: T3, G-protein coupled receptor 183 (Homo sapiens, UniProt P32249); test: SAR confirmation of small molecule antagonists of the EBI2 receptor via a luminescent beta-arrestin assa.; type: functional
T3 sequence (P32249 whole entry): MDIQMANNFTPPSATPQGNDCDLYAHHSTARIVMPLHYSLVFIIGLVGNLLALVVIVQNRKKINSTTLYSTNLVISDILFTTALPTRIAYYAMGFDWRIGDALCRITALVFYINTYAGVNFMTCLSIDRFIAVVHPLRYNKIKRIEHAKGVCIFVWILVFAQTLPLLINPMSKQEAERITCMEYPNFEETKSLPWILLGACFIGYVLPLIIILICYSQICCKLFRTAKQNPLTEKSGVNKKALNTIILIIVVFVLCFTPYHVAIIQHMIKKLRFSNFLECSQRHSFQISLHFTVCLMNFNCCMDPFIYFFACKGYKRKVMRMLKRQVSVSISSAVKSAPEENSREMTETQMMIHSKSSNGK

[8] = biological target: T3, G-protein coupled receptor 183; test: Dose-response confirmation of small molecule antagonists of the EBI2 receptor via a luminescent beta-arrestin assay.; type: functional
Beta-galactosidase = Beta-galactosidase (Escherichia coli, UniProt Q8VNN2); test: Dose response counterscreen for EBI2 assay utilizing the enzyme, b-galactosidase.; type: functional
Sequence of Beta-galactosidase (Q8VNN2 whole entry): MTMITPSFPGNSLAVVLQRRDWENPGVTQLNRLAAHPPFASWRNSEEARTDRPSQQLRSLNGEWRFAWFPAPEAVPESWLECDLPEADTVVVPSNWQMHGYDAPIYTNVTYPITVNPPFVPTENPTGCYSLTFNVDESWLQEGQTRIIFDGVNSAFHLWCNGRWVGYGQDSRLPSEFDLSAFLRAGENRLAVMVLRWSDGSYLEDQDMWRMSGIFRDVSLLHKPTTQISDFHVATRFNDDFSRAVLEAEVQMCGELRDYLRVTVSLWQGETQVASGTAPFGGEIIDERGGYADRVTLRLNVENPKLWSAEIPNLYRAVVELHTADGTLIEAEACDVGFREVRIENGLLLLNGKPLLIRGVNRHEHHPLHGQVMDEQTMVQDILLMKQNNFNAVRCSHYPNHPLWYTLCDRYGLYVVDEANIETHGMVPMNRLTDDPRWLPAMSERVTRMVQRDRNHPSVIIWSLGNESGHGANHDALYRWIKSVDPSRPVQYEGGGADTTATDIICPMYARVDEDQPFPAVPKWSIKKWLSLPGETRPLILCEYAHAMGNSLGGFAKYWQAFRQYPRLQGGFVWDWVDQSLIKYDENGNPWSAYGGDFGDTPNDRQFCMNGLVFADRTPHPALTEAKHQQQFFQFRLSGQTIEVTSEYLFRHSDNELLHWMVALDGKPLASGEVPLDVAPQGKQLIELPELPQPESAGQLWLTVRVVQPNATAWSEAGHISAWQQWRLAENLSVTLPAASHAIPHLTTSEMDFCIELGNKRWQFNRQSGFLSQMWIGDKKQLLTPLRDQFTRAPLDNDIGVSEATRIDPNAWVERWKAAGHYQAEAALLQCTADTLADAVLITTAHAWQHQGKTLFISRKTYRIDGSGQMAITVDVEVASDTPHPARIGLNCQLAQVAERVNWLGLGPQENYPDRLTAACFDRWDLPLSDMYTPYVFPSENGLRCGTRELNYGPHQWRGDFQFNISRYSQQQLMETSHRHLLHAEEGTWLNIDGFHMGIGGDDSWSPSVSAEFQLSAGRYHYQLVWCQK

[9] = HEK293 cell cytotoxicity, dose response, cytotoxicity control, luminescence, dry powder, set 12 (AID 743354); type: functional, cell-based
[10] = Mtb BioA inhibitors by displacement, dose response, biochemical, coupled fluorescence displacement, 20-point, dry powder (AID 743357); type: functional
[11] = P. falciparum Dd2 growth inhibitors, dose response, SYBR Green, cherry-picked samples (AID 1159567); type: functional, cell-based
[12] = Plasmodium falciparum Dd2 Sybr green parasite growth Measured in Cell-Based and Microorganism Combination System Using Plate Reader - 2153-01_Inhibitor_Dose_DryPowder_Activity_Set3.; type: functional
[13] = P. falciparum Dd2 growth inhibitors, dose response, SYBR Green, dry powder samples (AID 1159566); type: functional, cell-based;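 note: potency for growth inhibition with lower SYBR green DNA signal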
[14] = P. falciparum ATP4 D1247Y mutant growth inhibitors, dose response, NITD609-resistant line, SYBR Green, dry powder (AID 1159571); type: functional, cell-based;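 note: parasites synchronized at ring stage by sorbitol before testing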
[15] = HepG2 cell cytotoxicity, dose response, cytotoxicity control, plate reader, dry powder samples (AID 1159569); type: functional, cell-based;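 note: inhibitor potency with signal falling toward the positive control level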
[16] = P. falciparum 3D7-ScDHODH growth inhibitors, dose response, SYBR Green, dry powder samples (AID 1159570); type: functional, cell-based;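 note: parasite growth measured after 72 hours of compound exposure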
[17] = P. falciparum Dd2 blood-stage growth inhibition, dose response, SYBR Green fluorescence, erythrocytes, dry powder, set 2 (AID 1159574); type: functional, cell-based
[18] = SNU-C1 cell viability reduction, dose response, CellTiter-Glo luminescence (AID 1117323); type: functional, cell-based
[19] = cytotoxicity toward HT-29 cells – cell-based, CellTiter-Glo luminescence, IC50, dose response (AID 1117330); type: functional
[20] = cytotoxicity toward DRD oncogenic fibroblasts, dose response, cell-based, non-viral oncogenic, luminescence (AID 1934); type: functional; settings: Homo sapiens
[21] = Concentration-dependent survival of SW480 colon cancer line, luminescence detection with CellTiter-Glo, half-maximal inhibitory concentration (AID 1117338); type: functional
[22] = HeLa 4N DNA content increase, dose response, cell-based, IC50 (AID 1117351); type: functional
Streptococcus = test: Group A Streptococcus viability loss, dose response, counter-screen for streptokinase expression inhibitor project, luminescence, BacTiterGlo (AID 1915); type: functional, organism-based;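 note: potency for reduction of bacterial viability or growth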
[23] = CellTiter-Glo luminescent dose response of DLD-1 viability loss (AID 1117352); type: functional
[24] = HCT116 cell viability decrease, GSK3B pretreatment – CellTiter-Glo, IC50, dose response (AID 1117339); type: functional; settings: HCT-116
BJ [25] = test: cytotoxicity toward BJ-TERT-LT-ST fibroblasts, dose response, cell-based, RAS-independent, luminescence (AID 1935); type: functional; settings: Homo sapiens;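 note: BJ fibroblasts immortalized with TERT plus LT and ST oncogenes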
[26] = HeLa 2N DNA content increase, dose response, cell-based, IC50 (AID 1117349); type: functional
SN12K1 = test: cells; type: functional; settings: Homo sapiens
P388/ADR = test: cells; type: functional; settings: Mus musculus
HEK293 = test: inhibitors of LMP1-driven NF-kB reporter, dose response, cell-based, HEK293, luciferase, cherry-pick (AID 588343); type: functional; settings: Homo sapiens
BJ [27] = test: cytotoxicity toward BJ-TERT fibroblasts, dose response, cell-based, RAS-independent, luminescence (AID 1933); type: functional; settings: Homo sapiens
[28] = cytotoxicity toward HCT116 cells – cell-based, CellTiter-Glo luminescence, IC50, dose response (AID 1117332); type: functional; settings: HCT-116
[29] = cytotoxicity toward Colo320 cells – cell-based, CellTiter-Glo luminescence, IC50, dose response (AID 1117334); type: functional; settings: COLO 320
[30] = RKO cell viability reduction, dose response, CellTiter-Glo luminescence (AID 1117322); type: functional
P388 = test: cells; type: functional; settings: Mus musculus
BJ [31] = test: cells; type: functional, cell-based; settings: Homo sapiens
[32] = off-target signal loss in HeLa-CEM21 co-culture – HeLa F-luc CTL cells, cherry-picked, counter-screen for HIV-1 Env fusion inhibitor project, dose response (AID 652040); type: functional, cell-based;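 note: potency for signal decrease marking cytotoxic or nonspecific inhibition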
[33] = tested on: Streptococcus sp. 'group A'; test: growth inhibition of control SK(-) GAS strain, dose response, counter-screen for streptokinase expression inhibitor project, luminescence, kanamycin, BacTiterGlo, confirmation (AID 1900); type: functional, organism-based
[34] = Glucagon-like peptide 1 release potency, NCI-H716 cell line, dose-response, half-maximal inhibitory concentration (AID 1117344); type: functional, cell-based
[35] = half-maximal inhibitory concentration for glucagon-like peptide-1 release, STC-1 cell line, dose-response (AID 1117345); type: functional, cell-based
[36] = Dose-response inhibition of insulin secretion in a rat insulinoma line at 5 mM glucose (AID 1117331); type: functional, cell-based; settings: INS-1E

Sequence of Likely tRNA 2'-phosphotransferase (Q5A7N4 whole entry): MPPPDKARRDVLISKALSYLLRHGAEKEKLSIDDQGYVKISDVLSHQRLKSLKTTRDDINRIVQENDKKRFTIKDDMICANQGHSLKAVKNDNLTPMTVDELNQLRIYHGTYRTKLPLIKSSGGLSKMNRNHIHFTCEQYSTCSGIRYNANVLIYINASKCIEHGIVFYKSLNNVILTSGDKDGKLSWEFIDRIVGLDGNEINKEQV

Compound: Cc1ccccc1N1C(=O)/C(=C/c2ccco2)C(=O)NC1=S
- IC50 [1]: 2440 nM (active)
- IC50 [2]: < 1230 nM (inactive)
- IC50 [3]: > 55700 nM (not active)
- IC50 [4]: < 1230 nM (not active)
- IC50 (Genome polyprotein): 4780 nM (active)
- IC50 [5]: < 1230 nM (inactive)
- EC50 [6]: 710 nM (active)

Compound: O=C(/C=C/c1ccc(F)cc1)N1CCN(S(=O)(=O)/C=C/c2ccccc2)CC1
- IC50 [7]: 3.59 nM (active)
- IC50 [8]: 6.75 nM (active)
- IC50 (Beta-galactosidase): > 80000 nM (inactive)

Compound: CN1c2ccc(-c3cccc(F)c3)cc2[C@H]2[C@H](CCN2C(=O)CCCCCCN)[C@H]1CO
- AC50 [9]: > 52000 nM (inactive)
- AC50 [10]: 13000 nM (active)

Compound: CO[C@@H]1CN(C)C(=O)c2ccc(NC(=O)C3CC3)cc2OC[C@@H](C)N(Cc2cc(F)ccc2F)C[C@H]1C
- AC50 [11]: 1220 nM (active)
- AC50 [12]: 2080 nM (active)
- AC50 [13]: 957 nM (active)
- AC50 [14]: 1790 nM (active)
- AC50 [15]: 76200 nM (active)
- AC50 [16]: 5770 nM (active)

Compound: COc1ccc(NC(=O)N2CCCCN3[C@H](CO)[C@H](c4ccc(C#Cc5ccccc5)cc4)[C@@H]3C2)cc1
- AC50 [11]: < 300 nM (active)
- AC50 [13]: 3.84 nM (active)
- AC50 [14]: 3.09 nM (active)
- AC50 [15]: 85100 nM (active)
- AC50 [16]: 3.46 nM (active)
- AC50 [17]: 6.52 nM (active)

Compound: O=c1[nH]c(=O)n([C@H]2C[C@H](O)[C@@H](CO)O2)cc1F [FLOXURIDINE]
- IC50 [18]: > 20000 nM (inactive)
- IC50 [19]: > 20000 nM (inactive)
- EC50 [20]: > 150000 nM (not active)
- IC50 [21]: > 20000 nM (inactive)
- IC50 [22]: > 10000 nM (inactive)
- EC50 (Streptococcus): 1340 nM (active)
- IC50 [23]: 1 nM (active)
- IC50 [24]: 1 nM (active)
- EC50 (BJ [25]): > 150000 nM (inconclusive)
- IC50 [26]: > 10000 nM (inactive)
- GI50 (SN12K1): 340 nM (active)
- GI50 (P388/ADR): 250 nM (active)
- AC50 (HEK293): 61.9 nM (active)
- EC50 (BJ [27]): 57000 nM (active)
- IC50 [28]: 1 nM (active)
- IC50 [29]: > 20000 nM (inactive)
- IC50 [30]: 1 nM (active)
- GI50 (P388): 250 nM (active)
- EC50 (BJ [31]): 596 nM (active)
- AC50 [32]: > 70000 nM (inactive)
- EC50 [33]: 916 nM (active)

Compound: NC(=O)c1cccnc1 [NIACINAMIDE]
- IC50 [34]: > 40000 nM (inactive)
- IC50 [35]: > 40000 nM (inactive)
- IC50 [36]: > 33300 nM (inactive)
